Columns and labels:
[1] = test system: PC12 cells; experiment: PC12 cell neurite outgrowth in response to NGF; type: cell-based
Experimental: To assess the effect of p75^NTR constructs (FIG. 2) or c29 peptide on TrkA-mediated neuritogenesis, transfected PC12 cells were grown in the presence of 100 ng/ml NGF for 3 days, with fresh medium and NGF treatments added on day 2. Cells were then imaged live on an Olympus (IX81) microscope fitted with a CO2 atmospheric chamber, using analySIS software. Four random images of 80-100 cells were taken for each treatment condition and images were determined by measuring polygon neurite length of all cells in each image. Data analysis was performed using Graphpad PRISM.
Once PC12 cells are fully differentiated, they become dependent on NGF for survival (Greene, 1978), but can survive if grown in the presence of lower concentrations of NGF (Greene and Tischler, 1976). To determine if c29 could potentiate TrkA-mediated signals, PC12 cells were cultured in the presence of NGF concentrations ranging from 1-100 ng/ml for 5 days, following serum starvation and pre-incubation with c29, scrambled control peptide or no peptide (FIG. 5A). […] Peptides (1 μM) were added to the cultures every 48 hours at the time of NGF addition and medium exchange.

[2] = test system: p75^FL; experiment: Production of endogenous p75^CTF or p75^ICD fragments in p75^FL-transfected HEK293 cells; type: cell-based; conditions: vs untreated cells, data not shown

## KRWNSCKQNKQGANSRPVNQTPPPEGEKL (c29- Fragment of p75ICD) [29 amino acid peptide of the p75NTR juxtamembrane Chopper domain; delivered to cells linked to PTD4 or disulfide-linked carrier]
[1]; 1 ng/ml NGF, day 5, peptide 1 μM
  neurite outgrowth (length): 20 μm
[1]; 1 ng/ml and 10 ng/ml NGF, day 5, peptide 1 μM
  neurite length vs scrambled peptide or NGF alone: significantly longer neurites
[1]; 10 ng/ml NGF, day 5, peptide 1 μM
  median neurite length: 60 μm
[1]; 100 ng/ml NGF, day 5, peptide 1 μM, vs untreated cultures
  median neurite outgrowth: no difference
[1]; fragments incubated with PC12 cells and NGF, FIG. 16
  neurite growth: stimulated neurite growth
[2]
  rate of production of endogenous p75^CTF or p75^ICD fragments: did not differ significantly
